In patent US4312605A, “Method for grouting joints and/or cracks in sewer conduits” (Hayward Baker Company, priority 1980, dated 1982):

What was measured:
albino rats [1] = assay: Acute toxicity (LD50) of grout monomers; format: in vivo; conditions: from LD50 of MBA vs acrylamide
[2] = Precipitation of crosslinker from aqueous monomer solution; format: physicochemical; conditions: based on total metal acrylate salt; aqueous monomer solution 20-40% solids, especially if shaken
albino rats [3] = conditions: cited from earlier work
[4] = cited from earlier work
[5] = Gel time of grout mixtures after mixing components A and B; format: physicochemical; conditions: used instead of MgA in the monomer composition
Procedure: To 50 parts of each of the stock solutions a, b, c, d, and e, there is added 1.0 part of TEA (95% in water) and to another 50 parts of each of the stock solutions, there is added 2.0 parts of TEA (95% in water). The resulting ten solutions containing TEA, the latter five having twice as much TEA as the first five, are examples of component A that can be mixed with an approximately equal volume of initiator component B which in its simplest make-up consists of a solution in water of ammonium persulfate (AP).
The component B that is used with each of the first five of the TEA/monomer component A solutions is a solution of 2% AP in water, approximately 50 parts of the 2% AP solution being mixed, as at the discharge header of a packer, with 50 parts of the respective component A solution. These first five A and B mixtures when used in the field at about 20° (68° F.) have gel times of about 30 seconds. The component B made up for use with the last group of five TEA/monomer components A is a solution of 4% AP in water. When the latter AP solution is forced at approximately a rate of 50 parts for each 50 parts of a respective one of the last five TEA/monomer component A solutions through separate feed lines to the packer at field temperatures of about 10° (50° F.), the grout mixtures A and B give approximately 30-second gel times.

[6] = 4 to 25% calcium acrylate based on dry soil weight, redox catalyst; U.S. Pat. No. 2,651,619; cited from earlier work

C=CC(=O)NCNC(=O)C=C [MBA, N,N'-methylenebisacrylamide]
monomer toxicity (factor relative to acrylamide) (albino rats [1]): 1/2 | amount of crosslinker above which it tends to precipitate [2]: about 4 % by weight | LD50 (albino rats [3]): 390 mg/kg | neurotoxicity ([4]; at dose schedules and conditions employed (MRI Project No. 4308-N, page 287)): not neurotoxic

C=CC(N)=O [acrylamide]
neurotoxicity (general statement) ([4]; in vivo): a neurotoxic chemical

C=CC(=O)O [calcium acrylate (CaA), calcium acrylate]
gel time (in words) [5]: long gel time | compressive strength of stabilized soil [6]: up to 600 psi
